In ChEMBL document CHEMBL1138403, “Nitrogen-containing flavonoids as CDK1/Cyclin B inhibitors: design, synthesis, and biological evaluation” (Bioorg Med Chem Lett, 2007):
pIC50: −log10 of the molar value.

Columns and labels:
[1] = Inhibition of CDK1/Cyclin B; set-up: species or system Homo sapiens
A549 = test: Antiproliferative activity against human A549 cells after 72 hrs; assay type: functional, cell-based; conditions: A549, 72 h
Bel-7402 = test: Antiproliferative activity against human Bel7402 cells after 72 hrs; assay type: functional, cell-based; conditions: Bel-7402, 72 h
MCF7 = test: Antiproliferative activity against human MCF7 cells after 72 hrs; assay type: functional, cell-based; conditions: MCF7, 72 h
HL-60 = test: Antiproliferative activity against human HL60 cells after 72 hrs; assay type: functional, cell-based; conditions: HL-60, 72 h
[2] = Antiproliferative activity against human ECA109 cells after 72 hrs; assay type: functional, cell-based; conditions: ECa-109, 72 h
PC-3 [3] = test: Antiproliferative activity against human PC3 cells after 72 hrs; assay type: functional, cell-based; conditions: PC-3, 72 h
PC-3 [4] = test: Cell cycle arrest in human PC3 cells assessed as accumulation at SubG0 phase at 7.2 uM after 24 hrs relative to control by flow cytometry; assay type: functional
PC-3 [5] = test: Cell cycle arrest in human PC3 cells assessed as accumulation at G0/G1 phase at 7.2 uM after 24 hrs relative to control by flow cytometry; assay type: functional
PC-3 [6] = test: Cell cycle arrest in human PC3 cells assessed as accumulation at SubG0 phase at 7.2 uM after 12 hrs relative to control by flow cytometry; assay type: functional
PC-3 [7] = test: Cell cycle arrest in human PC3 cells assessed as accumulation at S phase at 7.2 uM after 24 hrs relative to control by flow cytometry; assay type: functional
PC-3 [8] = test: Cell cycle arrest in human PC3 cells assessed as accumulation at S phase at 7.2 uM after 12 hrs relative to control by flow cytometry; assay type: functional
PC-3 [9] = test: Effect on morphology of human PC3 cells assessed as increase in chromatin condensation by staining method; assay type: functional, cell-based
PC-3 [10] = test: Cell cycle arrest in human PC3 cells assessed as accumulation at G2/M phase at 7.2 uM after 24 hrs relative to control by flow cytometry; assay type: functional
PC-3 [11] = test: Cell cycle arrest in human PC3 cells assessed as accumulation at G0/G1 phase at 7.2 uM after 12 hrs relative to control by flow cytometry; assay type: functional
PC-3 [12] = test: Cell cycle arrest in human PC3 cells assessed as accumulation at G2/M phase at 7.2 uM after 12 hrs relative to control by flow cytometry; assay type: functional

SMILES | pIC50 [1] | pIC50 (A549) | pIC50 (Bel-7402) | pIC50 (MCF7) | pIC50 (HL-60) | pIC50 (PC-3 [3]) | pIC50 [2] | Activity (PC-3 [4]) | Activity (PC-3 [5]) | Activity (PC-3 [6]) | Activity (PC-3 [7]) | Activity (PC-3 [8]) | Activity (PC-3 [9]) | Activity (PC-3 [10]) | Activity (PC-3 [11]) | Activity (PC-3 [12])
COc1cc(OC)c(C(=O)/C=C/c2ccccc2Cl)c(O)c1CN1CCN(C)CC1 | < 5.52 | 5.39 | 5.12 | 5.28 | 4.96 | 5.33 | 5.15 | – | – | – | – | – | – | – | – | –
COc1cc(O)c2c(=O)cc(-c3ccccc3Cl)oc2c1CN1CCOCC1 | < 5.52 | < 3.82 | < 3.82 | 3.91 | 4.57 | 4.38 | 4.06 | – | – | – | – | – | – | – | – | –
COc1cc(OC)c(C(=O)/C=C/c2ccccc2Cl)c(O)c1CN(C)CCO | < 5.52 | 5.16 | 4.19 | 5.00 | 4.71 | 5.21 | 6.10 | – | – | – | – | – | – | – | – | –
COc1cc(OC)c(C(=O)/C=C/c2ccccc2Cl)c(O)c1CN(C)CCOC(C)=O | 6.49 | 5.48 | 5.09 | 5.29 | 4.97 | 5.00 | 5.41 | – | – | – | – | – | – | – | – | –
CCN(CC)Cc1c(OC)cc(OC)c(C(=O)/C=C/c2ccccc2Cl)c1O | 7.30 | 5.44 | 5.17 | 5.57 | 4.51 | 5.38 | 5.15 | – | – | – | – | – | – | – | – | –
COc1cc(OC)c(C(=O)/C=C/c2ccccc2Cl)c(O)c1CN(C)CC(=O)O | – | 4.10 | 4.45 | 4.14 | 4.10 | 4.90 | 4.35 | – | – | – | – | – | – | – | – | –
COc1cc(OC)c2c(=O)cc(-c3ccccc3Cl)oc2c1CN1CCCCC1 | 6.81 | < 3.82 | 4.35 | 4.63 | 4.46 | 4.81 | 4.63 | – | – | – | – | – | – | – | – | –
COc1cc(OC)c2c(=O)cc(-c3ccccc3Cl)oc2c1CN1CCOCC1 | < 5.52 | < 3.82 | 4.21 | – | 4.17 | 4.24 | 4.21 | – | – | – | – | – | – | – | – | –
COc1cc(OC)c(C(=O)/C=C/c2ccccc2Cl)c(O)c1CN1CCOCC1 | 7.32 | 5.32 | 4.64 | 4.76 | 5.16 | 4.76 | 5.21 | – | – | – | – | – | – | – | – | –
COc1cc(O)c2c(=O)cc(-c3ccccc3Cl)oc2c1CN1CCCCC1 | 6.86 | 4.34 | 3.93 | – | 4.32 | 4.20 | 4.67 | – | – | – | – | – | – | – | – | –
COC(=O)CN(C)Cc1c(OC)cc(OC)c(C(=O)/C=C/c2ccccc2Cl)c1O | < 5.52 | 5.04 | 5.07 | 4.97 | 6.40 | 5.14 | 4.86 | – | – | – | – | – | – | – | – | –

The next compounds have a higher pIC50 (A549) than those just listed; values first:

pIC50 [1] | pIC50 (A549) | pIC50 (Bel-7402) | pIC50 (MCF7) | pIC50 (HL-60) | pIC50 (PC-3 [3]) | SMILES | pIC50 [2] | Activity (PC-3 [4]) | Activity (PC-3 [5]) | Activity (PC-3 [6]) | Activity (PC-3 [7]) | Activity (PC-3 [8]) | Activity (PC-3 [9]) | Activity (PC-3 [10]) | Activity (PC-3 [11]) | Activity (PC-3 [12])
6.33 | 5.51 | 4.51 | 5.49 | 4.94 | 4.84 | COc1cc(OC)c(C(=O)/C=C/c2ccccc2Cl)c(O)c1CN(C)CCCN(C)C | 5.42 | – | – | – | – | – | – | – | – | –
7.24 | 5.55 | 5.51 | 5.59 | 5.44 | 5.77 | COc1cc(OC)c(C(=O)/C=C/c2ccccc2Cl)c(O)c1CN1CCCCC1 | 5.60 | 34.1% | 60.7% | 6.1% | 29.9% | 25.8% | Dose-dependent effect | 9.8% | 60.2% | 14%
5.90 | 5.59 | 5.17 | 5.41 | 4.85 | 5.51 | COc1cc(OC)c(C(=O)/C=C/c2ccccc2Cl)c(O)c1CN1CCCC1 | 5.16 | – | – | – | – | – | – | – | – | –
6.30 | 5.68 | 4.66 | 7.05 | 4.72 | 6.40 | COc1cc(OC)c(C(=O)/C=C/c2ccccc2Cl)c(O)c1CN(C)C | 5.59 | – | – | – | – | – | – | – | – | –
7.12 | 5.89 | 4.63 | 5.17 | 6.70 | 8.52 | CCN(C)Cc1c(OC)cc(OC)c(C(=O)/C=C/c2ccccc2Cl)c1O | 5.85 | – | – | – | – | – | – | – | – | –
